# Measurements as given in patent US12491249B2, “Methods for manufacturing phthalocyanine dye conjugates and stable conjugates” (Rakuten Medical, Inc., priority 2015, dated 2025).
# Read-outs that look alike come from different tables or passages of the source.
# Tests used:
# [1] = cited from earlier work
# A431 cells = assay: EGF-IR700 light-dependent killing; type: cell-based; conditions: for light-dependent killing after conjugate pre-exposure: 1 μg/mL
# Protocol: To assess if EGF-IR700 cell killing was assessed in A431 cells. A431 cells were seeded at 5000 cells per well in 96 well white clear bottom dishes one day prior to the experiment. The following day, the A431 cells were washed three times with EMEM supplemented with 1% Penicillin/Streptomycin (serum free media). The A431 cells were then washed one time with serum free media, then incubated with serum free media containing 1 sg/mL of EGF-IRDye 700DX for one hour at 4° C. or serum free media only. As a control to assess the specificity of the activity, in one condition A431 cells were pre-incubated with 100 sg/mL unconjugated cetuximab diluted in serum free media for one hour at 4° C. prior to incubation with 1 sg/mL of EGF-IRDye 700DX. The cells were then washed one time with serum free media.
# To induce IR700-dependent killing, the cells were then illuminated with a 690 nm laser with 32 J/cm^2 of light or protected from light (“no light”). Cell death was evaluated as described in Example 9 using CellTox Green. The normalized percentage of dead cells was calculated by subtracting all wells by the percentage of dead cells from the no light serum free media only control, dividing by EGF-IRDye 700DX at 32 J/cm^2 minus the no light serum-free media only control, and multiplied 100.
# The effect of EGF-IRDye 700DX pre-exposure to white light versus green light on photo-activated cell killing was also evaluated in A431 cells. EGF-IRDye 700DX was pre-exposed to different types of light and the effect of light treatment on photo-activated killing activity was evaluated. Five microliters of EGF-IRDye 700DX conjugate (DAR 2) was added per clear HPLC vial at a EGF-IRDye 700DX concentration of 1.14 mg/mL. The following conditions were tested: (1) the antibody-IRDye 700DX conjugate stored at 4° C. protected from light (“4° C.”, used as the control); (2). antibody-IRDye 700DX conjugate placed in a clear glass HPLC tube under a Halogen lamp at 2500 lux for 24 hrs (“white light”); (3) antibody-IRDye 700DX conjugate placed in a clear glass HPLC tube wrapped in aluminum foil to protect from light exposure under Halogen lamp at 2500 lux for 24 hrs (“no light”, used as a control for thermal heating effects on the formation of aggregates); and (4) antibody-IRDye 700DX conjugate placed in a clear glass HPLC tube and exposed to green LED lamp at 2500 lux for 24 hrs (“green light”).
# To assess cell killing activity, A431 cells were washed two times with serum free media, and incubated in serum free media alone for one hour at 4° C. The cells were then washed one time with serum free media and incubated with serum free media alone or serum free media containing 1 μg/mL of EGF-IRDye 700DX (“no light”), serum free media containing 1 μg/mL of EGF-IRDye 700DX pre-exposed to white light (“2500 Lux White light”), or serum free media containing 1 μg/mL EGF-IRDye 700DX pre-exposed to green light for one hour at 4° C. (“2500 Lux Green light”). The cells were then washed one time with serum free media.
# To induce cell killing, the cells were either protected from light (light dose 0 J/cm^2) or were illuminated with a 690 nm laser with different light dosimetries (8 J/cm^2, 32 J/cm^2 or 64 J/cm).
compound,measurement,setting,value
Photofrin,extinction coefficient,[1]; at 630 nm,1200 M⁻¹ cm⁻¹
"C=Cc1c(C)c2cc3nc(c(CC(=O)N[C@@H](CC(=O)[O-])C(=O)[O-])c4[nH]c(cc5nc(cc1[nH]2)C(C)=C5CC)c(C)c4C(=O)[O-])[C@@H](CCC(=O)[O-])[C@@H]3C.[Na+].[Na+].[Na+].[Na+] [NPe6/Laserphyrin, mono-L-aspartylchlorin e6]",extinction coefficient,[1]; at 654 nm,40000 M⁻¹ cm⁻¹
EGF-IRDye 700DX: Human recombinant epidermal growth factor (EGF) conjugated to IRDye 700DX,cell killing,"A431 cells; 1 sg/mL, 690 nm 32 J/cm^2 or no light",light-dependent killing
same,cell killing after receptor blocking,"A431 cells; cells pre-exposed to 100 sg/mL unconjugated cetuximab, 1 sg/mL conjugate",blocked light-dependent cell killing
same,light-dependent killing after conjugate pre-exposure,"A431 cells; green light, green LED lamp 2500 lux 24 hours",comparable to that of the “no light” EGF-IRDye 700DX
same,light-dependent killing after conjugate pre-exposure,"A431 cells; protected from light, thermal heating under halogen lamp 2500 lux 24 hours",exhibited light-dependent killing
same,light-dependent killing after conjugate pre-exposure,"A431 cells; white light, halogen lamp 2500 lux 24 hours",no longer exhibited light-dependent killing activity
